Source: paper PMC5800123, “Preparation and Optimisation of Cross-Linked Enzyme Aggregates Using Native Isolate White Rot Fungi Trametes versicolor and Fomes fomentarius for the Decolourisation of Synthetic Dyes” (International Journal of Environmental Research and Public …, 2017)

Tests used:
[1] = tested on: T1, free laccase from F. fomentarius (FF); details: read-out: Km Free Laccase; free enzyme from crude culture supernatant; ABTS 0.05-2.0 mM; general assay buffer 0.1 M sodium acetate pH 4.5
T1 construct: gene lac

[2] = tested on: T2, free laccase from T. versicolor (TV); details: read-out: Km Free Laccase; free enzyme from crude culture supernatant; ABTS 0.05-2.0 mM; general assay buffer 0.1 M sodium acetate pH 4.5
T2 construct: gene LCC1

Work on `CCn1c(=NN=c2sc3cc(S(=O)(=O)O)ccc3n2CC)sc2cc(S(=O)(=O)O)ccc21` [ABTS] yielded a Km [1] of 87 µM and a Km [2] of 1900 µM.
